Test results published in patent US20230218563A1, “METHODS FOR TREATING OR PREVENTING CHRONIC KIDNEY DISEASE” (Arthrosi Therapeutics, Inc., priority 2020, published 2023).
“Also recorded” adds a separate entry of the source. Like-named read-outs stand apart in the source and are kept apart here.

Assays:
[1] = target: T1, human URAT1 uptake transporter (Homo sapiens, UniProt Q96S37); assay: Inhibition of URAT1 mediated uric acid uptake in MDCKII cells stably expressing human URAT1; format: cell-based
T1 construct: expressed in transfected cells
T1 sequence (Q96S37 1-553): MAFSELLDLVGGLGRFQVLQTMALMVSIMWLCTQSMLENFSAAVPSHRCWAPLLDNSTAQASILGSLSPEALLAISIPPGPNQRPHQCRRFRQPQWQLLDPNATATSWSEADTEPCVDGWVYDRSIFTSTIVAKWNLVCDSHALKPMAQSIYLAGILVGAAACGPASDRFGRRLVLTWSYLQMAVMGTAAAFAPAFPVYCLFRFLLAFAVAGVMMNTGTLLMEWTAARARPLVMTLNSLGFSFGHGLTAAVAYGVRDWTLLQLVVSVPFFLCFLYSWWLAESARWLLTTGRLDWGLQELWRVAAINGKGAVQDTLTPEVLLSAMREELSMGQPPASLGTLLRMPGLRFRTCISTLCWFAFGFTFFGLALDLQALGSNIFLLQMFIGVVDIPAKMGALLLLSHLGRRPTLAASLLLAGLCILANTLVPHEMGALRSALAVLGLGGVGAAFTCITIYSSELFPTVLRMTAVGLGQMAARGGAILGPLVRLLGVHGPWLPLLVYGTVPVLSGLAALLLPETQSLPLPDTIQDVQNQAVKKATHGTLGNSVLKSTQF
Procedure: Uptake experiments were performed using MDCKII cells stably expressing the human URAT1 uptake transporter. Cells were cultured at 37±1° C. in an atmosphere of 95:5 air:CO2 and were plated onto standard 96-well tissue culture plates at the cell number described in Table 1.
Radiolabeled probe substrate transport was determined by measuring an aliquot (35 μL) from each well for liquid scintillation counting.

[2] = In vitro metabolism in human liver microsomes; format: in vitro ADME
Procedure: After pre-warming the mixture at 37° C. for 5 minutes, the reaction was initiated by the addition of 1 mM of NADPH and incubated for 60 minutes at 37° C. in a shaking water bath. The reaction was terminated by the addition of 0.5 mL ice-cold acetonitrile. Time 0 incubation was also performed by adding acetonitrile before the addition of microsomes to the incubation mixture as a reference sample for each species. Following vortex and centrifugation at 15,000 g for 3 minutes at room temperature, resulting supernatant was concentrated under nitrogen flow at 33° C., until approximately 0.5 mL of sample remained. The extract was then transferred to a 1.5-mL centrifuge vial for centrifugation at 15,000 g for 3 minutes. Finally, aliquots of the supernatant were transferred to HPLC vials for HPLC-MS analyses.
MS Analysis: Mass spectral analyses were performed on an Agilent single quadruple mass spectrometer equipped with an Agilent 1100 HPLC system. The mass spectrometer was fitted with an electrospray ionization (ESI) source and operated in a negative scan mode between 400 and 500 amu: […]

[3] = 4-week toxicity study in Sprague-Dawley rats; format: in vivo
Source text: (§1) On Day 29, surviving TS animals (all animals in study) were euthanized and subjected to a full gross necropsy, which included a macroscopic examination of the external surface of the body, all orifices, cranial cavity, external surface of the brain, the thoracic, abdominal and pelvic cavities and their viscera, cervical areas, carcass and genitalia. Organs were weighed as soon as possible from all main study animals at the scheduled necropsies. Tissues from Groups 1 and 5 animals at the terminal sacrifice, from animals found dead or moribund-sacrificed, and gross lesions from all animals, were embedded in paraffin, sectioned, stained with hematoxylin and eosin and examined microscopically by a board certified veterinary pathologist.

[4] = 4-week toxicity study in cynomolgus monkeys; format: in vivo
Source text: as §1, with “from” for “from Groups 1 and 5”

[5] = Phase 1 multiple ascending dose study, plasma pharmacokinetics in healthy adult males; format: in vivo; settings: male, human, oral, fasted
Source text: (§2) An additional 6 subjects received placebo.
Accumulation were approximately 1.3 to 1.4 fold for C. and 1.4 to 1.5 fold for AUC0.24 (Table 12 and FIG. 8).

serum uric acid (sUA) = assay: Phase 1 multiple ascending dose study, pharmacodynamics (serum uric acid) in healthy adult males; format: in vivo, human; settings: for reduction of sUA concentration at trough / reduction of sUA concentration, maximum: fasted, Day 10
Source text: as §2
Steady-state sUA lowering effect was achieved after approximately 5 days.

[6] = system: urine albumin-to-creatinine ratio (UACR); assay: Phase 2a study, UACR in a subject with albuminuria; format: in vivo, human; settings: one subject with albuminuria, baseline 96 mg/g; sequential 7-day periods: Compound 1 50 mg (Day 7), Compound 1 50 mg/allopurinol 300 mg (Day 14), allopurinol 300 mg (Day 21)
Source text: (§3) Urine samples were collected for assessment of uric acid excretion. Laboratory safety tests, vital signs, and electrocardiograms were collected throughout the study.

[7] = Phase 2a study, safety and tolerability in gout patients; format: in vivo, human; settings: 50 mg once daily
Source text: as §3

[8] = Solubility of test articles in HBSS assay buffer; settings: all tested concentrations, highest 10 μM
Procedure: Before the experiment, the medium was removed and the cells were washed twice with 100 μL of HBSS without Cl^−. Uptake experiments were carried out at 37±1° C. in 50 μL of HBSS without Cl^−, pH 7.4 containing the probe substrate (20 μM uric acid) and the test article (TA) or solvent.

[9] = rats, oral gavage 2, 5, 15 and 50 mg/kg/day, 28 days
[10] = cynomolgus monkeys, oral 10, 30 and 150 mg/kg/day, 28 days

[2H]c1c([2H])c([2H])c2c(C(=O)c3cc(Br)c(O)c(Br)c3)c(C(C)O)oc2c1[2H] (racemic) [Compound 1, (3,5-dibromo-4-hydroxyphenyl)(2-(1-hydroxyethyl)benzofuran-3-yl-4,5,6,7-d4)methanone]
in vitro URAT1 potency compared with benzbromarone [1]: better in vitro URAT1 potency than benzbromarone | stability in human microsomes ([2]; 60 minutes incubation): stable; also recorded: more stable than benzbromarone | Parent, % MS response (parent left) ([2]; human liver microsomes 0.5 mg/mL, NADPH, 60 minutes, 37° C.): 82.5% | NOAEL at 28 days ([3]; Sprague-Dawley, rat, in vivo, po): 50 mg/kg | NOAEL, human equivalent ([3]; rat, in vivo): 500 mg | dose with kidney weight increase, female ([3]; rats, 28 days oral): 50 mg/kg/day | dose with liver weight increase, female ([3]; rats, 28 days oral): ≥ 15 mg/kg/day | dose with liver weight increase, male ([3]; rats, 28 days oral): 50 mg/kg/day | findings at high or mid-high dose after 4 week recovery period ([3]; rats, 28 days oral then 4 week recovery): resolved | clinical signs [3, 9]: No abnormal clinical signs | effect on food consumption, body weight [3, 9]: no effect | mortality [3, 9]: No mortality | NOAEL, human equivalent ([4]; cynomolgus monkey, in vivo): 600 mg | NOAEL at 28 days ([4]; cynomolgus monkey, in vivo, po): 30 mg/kg | findings after 4 week recovery period ([4]; cynomolgus monkeys, 28 days oral then 4 week recovery): No finding | liver weight ([4]; cynomolgus monkeys, male, 150 mg/kg/day, 28 days): trended higher in male at 150 mg/kg/day, but no statistical difference | clinical signs [4, 10]: No abnormal clinical signs | effect on food consumption, body weight [4, 10]: no effect | mortality [4, 10]: No mortality | Cmax ([5]; 25 mg, 25 mg once daily, Day 1): 1760 ng/mL | AUC(0-t) ([5]; 25 mg, 25 mg once daily, Day 1, read-out: AUC0-24): 21200 ng·h/mL | Tmax ([5]; 25 mg, 25 mg once daily, Day 1, read-out: Tmax (median)): 3.5 h | Cmax ([5]; 25 mg, 25 mg once daily, Day 10): 2480 ng/mL | AUC(0-t) ([5]; 25 mg, 25 mg once daily, Day 10, read-out: AUC0-24): 30800 ng·h/mL | Tmax ([5]; 25 mg, 25 mg once daily, Day 10, read-out: Tmax (median)): 2.25 h | Cmax ([5]; 50 mg, 50 mg once daily, Day 1): 3550 ng/mL | AUC(0-t) ([5]; 50 mg, 50 mg once daily, Day 1, read-out: AUC0-24): 39600 ng·h/mL | Tmax ([5]; 50 mg, 50 mg once daily, Day 1, read-out: Tmax (median)): 2 h | Cmax ([5]; 50 mg, 50 mg once daily, Day 10): 4590 ng/mL | AUC(0-t) ([5]; 50 mg, 50 mg once daily, Day 10, read-out: AUC0-24): 58200 ng·h/mL | Tmax ([5]; 50 mg, 50 mg once daily, Day 10, read-out: Tmax (median)): 2.5 h | Cmax ([5]; 75 mg, 75 mg once daily, Day 1): 5200 ng/mL | AUC(0-t) ([5]; 75 mg, 75 mg once daily, Day 1, read-out: AUC0-24): 55600 ng·h/mL | Tmax ([5]; 75 mg, 75 mg once daily, Day 1, read-out: Tmax (median)): 1.75 h | Cmax ([5]; 75 mg, 75 mg once daily, Day 10): 6770 ng/mL | AUC(0-t) ([5]; 75 mg, 75 mg once daily, Day 10, read-out: AUC0-24): 84700 ng·h/mL | Tmax ([5]; 75 mg, 75 mg once daily, Day 10, read-out: Tmax (median)): 1.5 h | reduction of sUA concentration at trough (serum uric acid (sUA); 25 mg oral capsules once daily): 41% | reduction of sUA concentration, maximum (serum uric acid (sUA); 25 mg oral capsules once daily): up to 44% | reduction of sUA concentration at trough (serum uric acid (sUA); 50 mg oral capsules once daily): 58% | reduction of sUA concentration, maximum (serum uric acid (sUA); 50 mg oral capsules once daily): up to 67% | reduction of sUA concentration at trough (serum uric acid (sUA); 75 mg oral capsules once daily): 65% | reduction of sUA concentration, maximum (serum uric acid (sUA); 75 mg oral capsules once daily): up to 69% | time to steady-state sUA lowering effect (serum uric acid (sUA); once-daily 25, 50 or 75 mg): approximately 5 days | UACR [6]: 41 mg/g | UACR % change from baseline [6]: −57.4% | laboratory or ECG abnormalities [7]: no clinically significant laboratory or ECG abnormalities | tolerability [7]: well tolerated | solubility in HBSS buffer [8]: soluble
